Reference: ChEMBL document CHEMBL5335774 (Eur J Med Chem, 2023)

What was measured:
[1] = biological target: T1, Replicase polyprotein 1ab (Severe acute respiratory syndrome coronavirus 2, UniProt P0DTD1)
[2] = biological target: T1, Replicase polyprotein 1ab; remark: listed apart in the source
Replicase polyprotein 1a = Replicase polyprotein 1a (Severe acute respiratory syndrome-related coronavirus, UniProt P0C6U8)
Procathepsin L = Procathepsin L (Homo sapiens, UniProt P07711)
Vero = assay: Cytotoxicity against green monkey Vero cells; format: toxicity, cell-based; details: chlorocebus sabaeus
[3] = biological target: T1, Replicase polyprotein 1ab; remark: listed apart in the source
[4] = biological target: Replicase polyprotein 1ab (Severe acute respiratory syndrome coronavirus 2) (UniProt P0DTD1); details: time 70.0 min
[5] = biological target: Replicase polyprotein 1ab (Severe acute respiratory syndrome coronavirus 2) (UniProt P0DTD1); details: dose 40.0 µM, time 30.0 min
SARS-CoV-2 = assay: microbe, parasite or virus in culture; details: Severe acute respiratory syndrome coronavirus 2, Vero, 16 h

Procathepsin L, sequence (P07711 whole entry): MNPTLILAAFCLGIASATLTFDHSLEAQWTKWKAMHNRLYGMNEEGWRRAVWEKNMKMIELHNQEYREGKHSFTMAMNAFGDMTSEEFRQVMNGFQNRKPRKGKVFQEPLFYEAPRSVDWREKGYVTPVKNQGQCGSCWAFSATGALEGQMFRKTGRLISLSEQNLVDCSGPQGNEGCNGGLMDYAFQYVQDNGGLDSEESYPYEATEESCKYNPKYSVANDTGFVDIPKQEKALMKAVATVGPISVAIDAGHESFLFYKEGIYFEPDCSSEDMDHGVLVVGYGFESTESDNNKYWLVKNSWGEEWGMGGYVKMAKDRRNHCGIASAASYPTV

## CCSC(=S)NCc1cccnc1
[1]; read-out: IC50
  IC50: 178 nM
[2]; read-out: IC50
  IC50: 22400 nM

## S=C(NCc1cccnc1)SCc1ccccc1
[1]; read-out: IC50
  IC50: 23 nM
[2]; read-out: IC50
  IC50: 9360 nM

## S=C([S-])NCc1cccnc1.[K+]
[1]; read-out: pIC50 (converted)
  IC50: 26.9 nM
[2]; read-out: IC50
  IC50: 1360 nM
Replicase polyprotein 1a
  IC50: 165 nM
Procathepsin L; read-out: IC50
  IC50: 42800 nM
Vero
  Activity: Toxic

## Cc1cccc2nc(CSC(=S)NCc3cccnc3)cn12
[1]; read-out: IC50
  IC50: 21 nM
[2]; read-out: IC50
  IC50: 1460 nM
[2]; read-out: pIC50 (converted)
  IC50: 1410 nM
Replicase polyprotein 1a
  IC50: 383 nM
Procathepsin L; read-out: IC50
  IC50: 122000 nM
[3]
  IC50: 8 nM
[4]
  inhibition: 80%
Vero
  Activity: Non-Toxic
[5]
  ΔTm: 14.2 °C
SARS-CoV-2
  IC50: 1060 nM

## Cc1cccc2nc(CNC(=S)NCc3cccnc3)cn12
[1]; read-out: IC50
  IC50: 35000 nM
[2]
  pIC50: < 4
[2]; read-out: IC50
  IC50: > 100000 nM

## S=C(NCc1cccnc1)OCc1ccccc1
[1]; read-out: IC50
  IC50: > 100000 nM
[1]; read-out: pIC50 (converted)
  IC50: > 100000 nM
[2]
  pIC50: < 4
[2]; read-out: IC50
  IC50: > 100000 nM

## CC(C)C[C@H](NC(=O)OCc1ccccc1)C(=O)N[C@@H](CC1CCNC1=O)C(O)S(=O)(=O)O (some centres not stated)
Procathepsin L; read-out: pIC50 (converted)
  IC50: 0.692 nM
